pIC50: −log10 of the molar value. Read-outs that look alike come from different tables or passages of the source.
Legend:
[1] = test system: neutrophil influx; assay: Murine arachidonic acid-induced inflammation model: neutrophil influx in ear, myeloperoxidase activity (% Inh. MPO); type: in vivo; conditions: Mus musculus, female Balb/c mice, 30 mg/kg oral gavage, ear biopsy 3 h after topical arachidonic acid, number of determinations in parentheses
Summary of the method: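 Female Balb/c mice were dosed orally at 30 mg/kg (20% cyclodextran/H2O). Ear biopsies at 3 h; MPO activity by TMB, A405, acetone ear subtracted; inhibition versus vehicle-dosed mice.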

[2] = test system: LTB4 production by calcium ionophore-stimulated human blood; assay: LTB4 production by calcium ionophore-stimulated human blood for LTA4H inhibitor activity; type: cell-based
Protocol: Assay 3: LTB4 Production by Calcium Ionophore-Stimulated Human Blood for LTA4H Inhibitor Activity
Human blood was collected from healthy donors in heparin-containing syringes. The blood was diluted 1:1 with RPMI-1640 medium, and 200-μL aliquots of the diluted blood were added to wells of a 96-well microtiter plate. LTA4H inhibitor test compounds were prepared at different concentrations in RPMI-1640 medium containing 1% DMSO, and 20 μL of each test solution was added to a well containing diluted whole blood (final DMSO concentration of 0.1%). After the microtiter plate contents were incubated for 15 min at 37° C. in a humidified incubator, calcium ionophore A23187 (Sigma Chemical Co., St. Louis, Mo.) was added to each sample well (final concentration=7 μg/mL). The incubation was continued under the same conditions for an additional 30 min to allow LTB4 formation. The reaction was terminated by centrifugation (833×g, 10 min at 4° C.), and supernatants were analyzed for LTB4 by a commercially available enzyme-linked immunoassay (Cayman Chemical Co.) according to the manufacturer's instructions. Positive controls, under essentially identical conditions but without addition of an inhibitor compound, and negative unstimulated controls, containing all assay components except calcium ionophore, were routinely run in each experiment. IC50 values for compounds tested in this assay were determined by nonlinear regression of the activity data at different compound concentrations using Graphpad Prism 4.0, one site binding competition, and are presented in Table 3. The number of determinations made is indicated in parentheses following each value.

[3] = human blood diluted 1:1, calcium ionophore A23187, LTB4 by immunoassay, n in parentheses, read-out: IC50

Structure (SMILES) | pIC50 [2, 3] | inhibition in vivo at 30 mg/kg [1] | pIC50 ([2]; Homo sapiens)
CC(=O)N1C[C@@H]2C[C@H]1CN2CCOc1ccc(Oc2nc3ncccc3s2)cc1 [Example 14, 2-(4-{2-[(1S,4S)-5-Acetyl-2,5-diazabicyclo[2.2.1]hept-2-yl]ethoxy}phenoxy)[1,3]thiazolo[4,5-b]pyridine] | 7.10 | 72.3% | 
CC(=O)N1C[C@H]2CC[C@@H](C1)N2CCc1ccc(Oc2nc3ncccc3s2)cc1 [Example 55, meso-2-(4-{2-[3-Acetyl-3,8-diazabicyclo[3.2.1]oct-8-yl]ethyl}phenoxy)[1,3]thiazolo[4,5-b]pyridine] | 7.00 | 73.5% | 
CC(=O)N1C[C@@H]2C[C@H]1CN2CCc1ccc(Oc2nc3ncccc3s2)cc1 [Example 75, 2-(4-{2-[(1S,4S)-5-Acetyl-2,5-diazabicyclo[2.2.1]hept-2-yl]ethyl}phenoxy)[1,3]thiazolo[4,5-b]pyridine] | 6.52 | 68.1% | 
CC(=O)N[C@@H]1C[C@H]2CC[C@@H](C1)N2Cc1ccc(Oc2nc3ncccc3s2)cc1 [Example 109, meso-N-{(3-exo)-8-[4-([1,3]Thiazolo[4,5-b]pyridin-2-yloxy)benzyl]-8-azabicyclo[3.2.1]oct-3-yl}acetamide] |  | 71.5% | 7.06
CC(=O)N[C@H]1C[C@H]2CC[C@@H](C1)N2Cc1ccc(Oc2nc3ncccc3s2)cc1 [Example 116, meso-N-{(3-endo)-8-[4-([1,3]Thiazolo[4,5-b]pyridin-2-yloxy)benzyl]-8-azabicyclo[3.2.1]oct-3-yl}acetamide] |  | 70% | 7.72
CC(=O)N1C[C@@H]2C[C@H]1CN2Cc1ccc(Oc2nc3ncc(C)cc3s2)cc1 [Example 121, 2-(4-{[(1S,4S)-5-Acetyl-2,5-diazabicyclo[2.2.1]hept-2-yl]methyl}phenoxy)-6-methyl[1,3]thiazolo[4,5-b]pyridine] | 7.06 | 83% | 
NC(=O)N1C[C@H]2C[C@@H]1CN2Cc1ccc(Oc2nc3ncccc3s2)cc1 [Example 266, (1R,4R)-5-[4-([1,3]Thiazolo[4,5-b]pyridin-2-yloxy)benzyl]-2,5-diazabicyclo[2.2.1]heptane-2-carboxamide] | 6.81 | 85.8% | 

Further molecules by rising pIC50 [2, 3], results first:

pIC50 [2, 3] | Structure (SMILES) | inhibition in vivo at 30 mg/kg [1] | pIC50 ([2]; Homo sapiens)
6.59 | NC(=O)N1C[C@@H]2C[C@H]1CN2CCc1ccc(Oc2nc3ncccc3s2)cc1 [Example 45, (1S,4S)-5-{2-[4-([1,3]Thiazolo[4,5-b]pyridin-2-yloxy)phenyl]ethyl}-2,5-diazabicyclo[2.2.1]heptane-2-carboxamide] | 71.1% | 
6.64 | CC(=O)N1CC2CN(CCc3ccc(Oc4nc5ncccc5s4)cc3)CC2C1 (stereo not drawn) [Example 73, 2-{4-[2-(5-Acetylhexahydropyrrolo[3,4-c]pyrrol-2(1H)-yl)ethyl]phenoxy}[1,3]thiazolo[4,5-b]pyridine] | 79.4% | 
6.85 | NC(=O)N1C[C@@H]2C[C@H]1CN2Cc1ccc(Oc2nc3ncccc3s2)cc1 [Example 106, (1S,4S)-5-[4-([1,3]Thiazolo[4,5-b]pyridin-2-yloxy)benzyl]-2,5-diazabicyclo[2.2.1]heptane-2-carboxamide] | 95.2% | 
6.87 | O=C1CCCN1C1CCN(Cc2ccc(Oc3nc4ncccc4s3)cc2)CC1 [Example 83, 1-{1-[4-([1,3]Thiazolo[4,5-b]pyridin-2-yloxy)benzyl]piperidin-4-yl}pyrrolidin-2-one] | 88.2% | 
7.14 | CC(=O)N1C[C@H]2C[C@@H]1CN2Cc1ccc(Oc2nc3ncccc3s2)cc1 [Example 265, 2-(4-{[(1R,4R)-5-Acetyl-2,5-diazabicyclo[2.2.1]hept-2-yl]methyl}phenoxy)[1,3]thiazolo[4,5-b]pyridine] | 90.8% | 
7.24 | CC(=O)N1C[C@H]2C[C@@H]1CN2CCOc1ccc(Oc2nc3ncccc3s2)cc1 [Example 267, 2-(4-{2-[(1R,4R)-5-Acetyl-2,5-diazabicyclo[2.2.1]hept-2-yl]ethoxy}phenoxy)[1,3]thiazolo[4,5-b]pyridine] | 90.6% | 
7.28 | NC(=O)C1CCN(CCOc2ccc(Oc3nc4ncccc4s3)cc2)CC1 [Example 31, 1-{2-[4-([1,3]Thiazolo[4,5-b]pyridin-2-yloxy)phenoxy]ethyl}piperidine-4-carboxamide] | 70.5% | 
8.10 | O=C1CCCN1C1CCN(CCOc2ccc(Oc3nc4ncccc4s3)cc2)CC1 [Example 32, 1-(1-{2-[4-([1,3]Thiazolo[4,5-b]pyridin-2-yloxy)phenoxy]ethyl}piperidin-4-yl)pyrrolidin-2-one] | 76% | 

Source: patent US20110190503A1, “Thiazolopyridin-2-yloxy-phenyl and thiazolopyrazin-2-yloxy-phenyl amines as modulators of leukotriene A4 hydrolase” (Janssen Pharmaceutical NV, priority 2008, published 2011)
